This note sets out measurements from PubChem BioAssay (NCI).

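Method: 48-hour compound exposure of cells in 96-well plates, five concentrations, linear interpolation of endpoints. The concentration for 50% growth inhibition is given as GI50. Definition used: TGI = concentration required for complete inhibition of growth.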

Test systems include NCI-H460 lung; SR leukemia; MOLT-4 leukemia; COLO 205 colon; RXF 393 renal; A498 renal; NCI-H23 lung; HOP-62 NSCLC; 786-0 renal; HS 578T breast; SK-MEL-5 melanoma.
Common to all, as to test: inhibition of tumour cell growth, NCI panel, 48 h

For `Nc1ccccc1C(=O)C(Br)C(Br)c1ccc2c(c1)OCO2` (stereo unspecified), the TGI was 39.2 µM with NCI-H460 lung; greater than 100 µM in the assay on SR leukemia; greater than 100 µM with MOLT-4 leukemia; 27.4 µM with COLO 205 colon; 49.9 µM in the assay with RXF 393 renal; 60.7 µM in the assay on A498 renal. The TGI in the assay with NCI-H23 lung is 47.4 µM; in the assay with HOP-62 NSCLC it was 51 µM; in the assay with 786-0 renal it was greater than 100 µM.

As for `COc1ccc(-n2nc(C)c3c(Nc4ccc(NC(=O)Nc5ccc(Cl)c(C(F)(F)F)c5)cc4)ncnc32)cc1`, the GI50 in the assay on NCI-H460 lung was 2.17 µM; in the assay on HS 578T breast, 1.58 µM; in the assay on MOLT-4 leukemia, 1.82 µM; in the assay with COLO 205 colon, 1.71 µM; with RXF 393 renal, 0.617 µM; with SK-MEL-5 melanoma, 1.72 µM. The values for the GI50 in the assay on A498 renal, in the assay on NCI-H23 lung and with HOP-62 NSCLC were 2.09 µM, 1.69 µM and 1.83 µM, respectively. Also, the TGI in the assay with NCI-H460 lung was 5.07 µM; in the assay on HS 578T breast, 4.2 µM; in the assay with MOLT-4 leukemia, 7.49 µM; in the assay with COLO 205 colon, 3.64 µM; with RXF 393 renal it was 2.17 µM; in the assay on SK-MEL-5 melanoma, 3.23 µM. Moreover, the TGI in the assay on A498 renal is 5.67 µM; with NCI-H23 lung it was 3.95 µM; in the assay on HOP-62 NSCLC it was 3.66 µM.

For the compound `c1ccc(C2CC(=NC3CCCCC3)Nc3ccccc3N2)cc1` (stereo unspecified), the TGI in the assay on NCI-H460 lung was greater than 100 µM; in the assay on HS 578T breast, 94.8 µM; in the assay on MOLT-4 leukemia, greater than 100 µM; in the assay with COLO 205 colon it was greater than 100 µM; with RXF 393 renal, greater than 100 µM; in the assay on SK-MEL-5 melanoma it was 43.7 µM. Also, the TGI in the assay on A498 renal was 93.7 µM; in the assay on NCI-H23 lung, greater than 100 µM; in the assay with HOP-62 NSCLC, greater than 100 µM; in the assay with 786-0 renal, greater than 100 µM.

As for `CN1N=C(c2ccncc2)OC1c1ccccc1F` (stereo unspecified), the TGI with NCI-H460 lung, in the assay with HS 578T breast, with MOLT-4 leukemia, with COLO 205 colon, in the assay on RXF 393 renal and in the assay with SK-MEL-5 melanoma was greater than 100 µM throughout. For the same compound, the TGI in the assay on A498 renal, in the assay on NCI-H23 lung, in the assay on HOP-62 NSCLC and with 786-0 renal was greater than 100 µM throughout.

With `C[C@]12CC[C@@H]3c4ccc(O)cc4CC[C@H]3[C@@H]1C/C(=C\c1ccc(C#N)cc1)C2=O`, the TGI in the assay with NCI-H460 lung was greater than 100 µM; in the assay on SR leukemia it was greater than 100 µM; with MOLT-4 leukemia, greater than 100 µM; with COLO 205 colon it was greater than 100 µM; in the assay with RXF 393 renal it was 52.6 µM; with SK-MEL-5 melanoma, greater than 100 µM. Besides, the TGI in the assay on A498 renal, with NCI-H23 lung, with HOP-62 NSCLC and in the assay on 786-0 renal was greater than 100 µM each time.

Turning to `c1ccc2c(c1)CCCC/C2=N/OCC1CO1` (stereo unspecified), the TGI with NCI-H460 lung, in the assay with SR leukemia, in the assay with MOLT-4 leukemia, with COLO 205 colon, with RXF 393 renal and in the assay with SK-MEL-5 melanoma was greater than 100 µM each time. Also, the TGI in the assay on A498 renal and in the assay with NCI-H23 lung was greater than 100 µM throughout.

Regarding `CCN1C(=O)C(=C/C=C/c2ccc(N(CC)CC)cc2)C(=O)N(CC)C1=S`, the TGI with NCI-H460 lung, in the assay with HS 578T breast, in the assay with MOLT-4 leukemia, in the assay on COLO 205 colon, in the assay on RXF 393 renal and with SK-MEL-5 melanoma was greater than 100 µM in each case. For the same compound, the results for the TGI in the assay on NCI-H23 lung, in the assay with HOP-62 NSCLC and in the assay on 786-0 renal were greater than 100 µM, 50.7 µM and greater than 100 µM, respectively.

Regarding `COc1cc(C2c3cc4c(cc3[C@@H](Nc3ccc5c(c3)OCO5)C3COC(=O)[C@H]23)OCO4)cc(OC)c1O` (stereo partly specified), the TGI in the assay with NCI-H460 lung was 1.57 µM; in the assay with MOLT-4 leukemia, 0.236 µM; in the assay on COLO 205 colon, 7.41 µM; in the assay on RXF 393 renal, 6.15 µM; in the assay with SK-MEL-5 melanoma it was 2.64 µM; in the assay with A498 renal it was 1.84 µM. The TGI in the assay on NCI-H23 lung worked out at 4.07 µM; in the assay on HOP-62 NSCLC, 0.715 µM.

For `COC(=O)[C@H](Cc1ccccc1)NC(=O)N(CCC#N)CCN(C(=O)N[C@@H](Cc1ccccc1)C(=O)OC)c1ccccc1`, the TGI is greater than 100 µM in the assay on HS 578T breast; 41.3 µM in the assay with MOLT-4 leukemia; 56.2 µM in the assay with COLO 205 colon; 37.7 µM with RXF 393 renal; 46.2 µM in the assay with SK-MEL-5 melanoma; 39.8 µM with A498 renal. Further, the results for the TGI in the assay with NCI-H23 lung, in the assay with HOP-62 NSCLC and in the assay on 786-0 renal were 93.6 µM, greater than 100 µM and 50.8 µM, respectively.

Consider `O=[N+]([O-])/C(Cl)=C(\NCCN/C(C(Cl)=C(Cl)Cl)=C(/Cl)[N+](=O)[O-])C(Cl)=C(Cl)Cl`, for which the TGI with NCI-H460 lung is greater than 100 µM; with SR leukemia it was 50.4 µM; in the assay with MOLT-4 leukemia, 80.7 µM; in the assay with COLO 205 colon, greater than 100 µM; with A498 renal it was greater than 100 µM; in the assay on NCI-H23 lung, greater than 100 µM. Also, the TGI in the assay on HOP-62 NSCLC and in the assay with 786-0 renal was greater than 100 µM in each case.

Consider `CC(=O)Oc1c(C)c(C)c2c(c1C)CCC(C)(CC(=O)OCCCCCCCCCCC[P+](c1ccccc1)(c1ccccc1)c1ccccc1)O2` (stereo unspecified), for which the GI50 in the assay on HS 578T breast was 0.413 µM; with COLO 205 colon, 0.391 µM; with SK-MEL-5 melanoma, 0.191 µM; in the assay with A498 renal it was 0.385 µM. The TGI in the assay on HS 578T breast worked out at 3.28 µM; with COLO 205 colon, 1.39 µM; with SK-MEL-5 melanoma it was 0.359 µM; in the assay with A498 renal, 2 µM.

Turning to `O=C1C=CC(=O)C(CNc2ccc(C(=O)OCc3ccccc3)cc2)=C1`, the TGI is 38.9 µM with NCI-H460 lung; 55.4 µM in the assay with HS 578T breast; greater than 100 µM in the assay with MOLT-4 leukemia; 3.79 µM with COLO 205 colon; 8.54 µM in the assay on RXF 393 renal; 11.6 µM in the assay with SK-MEL-5 melanoma. Besides, the TGI amounted to 23.5 µM in the assay with A498 renal, 30.1 µM in the assay on NCI-H23 lung, 33 µM with HOP-62 NSCLC and 13.6 µM in the assay with 786-0 renal.

Turning to `S=C1NC2=C(CSC/C2=C\c2ccccc2)C(c2ccccc2)N1` (stereo unspecified), the TGI in the assay with NCI-H460 lung was greater than 100 µM; in the assay on SR leukemia, greater than 100 µM; in the assay with MOLT-4 leukemia, greater than 100 µM; with COLO 205 colon, greater than 100 µM; with RXF 393 renal, greater than 100 µM; in the assay on SK-MEL-5 melanoma it was 24.5 µM. Also, the TGI with NCI-H23 lung, in the assay on HOP-62 NSCLC and in the assay with 786-0 renal was greater than 100 µM throughout.
